{
  "source": "patent US20200277646A1",
  "about": "“METHOD OF DETERMINING TERPENE-BASED BIOCONTROL AGENTS FOR CANNABIS AND HEMP” (priority 2019, published 2020)",
  "type_in_all_cases": "cell-based",
  "key": {"[1]": {"system": "three mold species and one species of Enterobacteriaceae found on cannabis flowers", "experiment": "Paper inhibition disc trials across several microbial species", "conditions": "paper inhibition discs with terpene dilutions in ethanol; EB species and three mold species", "source_text": "The method of determining terpene-based biocontrol agents for use on cannabis and hemp include processing steps that include a. Isolate epiphytic microorganisms from cannabis ‘flower wash’ and isolate into pure cultures. b. Grow up individual fungal or bacterial broth cultures with shaking at RT until turbidity is evident; if, possible take OD600 nm reading of turbidity for each culture just prior to plating out serial dilutions onto agar plates to determine ˜CFU/ml. c. Based on CFU data from (b) above, re-inoculate fresh broth cultures for individual cultures monitoring OD600 nm to reach previous data point and make appropriate dilutions to attain complete seeding on agar petri plate. d. While allowing bacterial suspension to be absorbed into agar, prepare terpene-treated Whatman filter paper hole punches by aliquoting 25 μl of either full strength, 1:10 dilution or 1:100 dilution. Dilutions should be made into 1-15% MeOH or 1-2% castile soap. e. […] One terpene per plate at three concentrations with negative control. ii. One microbial culture seeded per plate. f. Allow plates to grow with incubation at 28° C. for overnight and photograph as well as measuring any zones of inhibition. Continue incubation for 2 more days, taking photographs and making measurements after each 24-hr period. g. Repeat steps (c) through (f) for each terpene against all microbial cultures.\nThese four plates show three mold species and one species of Enterobacteriaceae found on cannabis flowers 1010. One Enterobacteriaceae species sample plate and three mold species sample plates 1020. An Enterobacteriaceae Count Plate referred to herein as EB plate 1022, and mold species sample plates Mold 1 plate 1024, Mold 2 plate 1026, and Mold 3 plate 1028. The indicated colonies were picked and cultured prior to inoculation of agar petri dishes 1030. Paper inhibition discs with terpene dilutions in ethanol were applied immediately after inoculation of the agar plate as described previously 1040\nThe EB species and three mold species were tested for inhibition with the selected terpenes 1110. The indicated colonies were picked and cultured prior to inoculation of agar petri dishes 1120. Paper inhibition discs with terpene dilutions in ethanol were applied immediately after inoculation of the agar plate as described previously 1130. […] The results of the trials across several microbial species is continued in FIG. 11B.\nThere was also significant inhibition of bacterial growth by many of the terpenes 1150. Different microbial species were differentially affected by individual terpenes 1160. […]"}, "[2]": {"system": "mold found on a cannabis flower", "experiment": "Terpene added to known contaminated sample during preparation of the culture plate", "source_text": "Terpenes can inhibit the growth of mold found on a cannabis flower 840. An effective range is 1-5% with some inhibition at levels as low as 0.1% 850 of one embodiment."}, "[3]": {"system": "yeast and mold species from certified reference materials", "experiment": "Paper disc inhibition on agar plates of yeast and mold species from certified reference materials", "conditions": "paper discs, terpene only, 10% and 1% dilutions in ethanol; ethanol-only center disc", "method": "Paper discs were added to the plates, and small volumes of terpenes diluted in ethanol were added to the discs 902. The center discs had ethanol only, while ‘1:1’ discs had terpene only 904 and 10% and 1% dilutions of terpene in ethanol were also included 910. […] Many terpenes are likely to have inhibitory effects on microbial growth 940. […] Terpenes microbial growth inhibitor samples 970 include carene, humulene, limonene, ocimene, terpineol, and terpinolene of one embodiment."}},
  "data": [
    {"smiles": "CC(C)=CCCC(C)=CC=O", "note": "[Citral, citral]", "values": [
      {"measurement": "effectiveness among terpenes tested", "setting": "[1]", "result": "the most effective of terpenes tested"}
    ]},
    {"smiles": "C=CCc1ccc(O)c(OC)c1", "note": "[eugenol]", "values": [
      {"measurement": "effectiveness among terpenes tested", "setting": "[1]", "result": "the most effective of terpenes tested"}
    ]},
    {"smiles": "CC(C)=CCC/C(C)=C/CO", "note": "[geraniol]", "values": [
      {"measurement": "effectiveness among terpenes tested", "setting": "[1]", "result": "the most effective of terpenes tested"}
    ]},
    {"smiles": "C=CC(C)(O)CCC=C(C)C", "note": "(stereo not shown) [linalool]", "values": [
      {"measurement": "effectiveness among terpenes tested", "setting": "[1]", "result": "the most effective of terpenes tested"}
    ]},
    {"smiles": "CC1=CCC(=C(C)C)CC1", "note": "[terpinolene]", "values": [
      {"measurement": "inhibition of mold growth", "setting": "[2]; terpene added at 0.1% to known contaminated sample", "result": "significant inhibition of mold growth"},
      {"measurement": "inhibition of mold growth", "setting": "[2]; terpene added at 1% to known contaminated sample", "result": "significant inhibition of mold growth"},
      {"measurement": "inhibition of yeast and mold growth", "setting": "[3]", "result": "the most inhibition"}
    ]}
  ]
}
